As usually defined, the IC50 is the concentration that gives 50% inhibition.

This experiment addresses angiotensin II receptor. The experiment can be described thus: Displacement of 125I- or 3H-angiotensin II from receptor preparations from various organs (liver, lung, adrenal gland, brain etc.). The class given is binding. The note with it: Table 1; radioligand displacement, 25° C., 90 min, pH 7.4. The procedure:
Alternatively, the affinity of the compounds of the formula I for the angiotensin II receptor can be determined by measurement of the ^125 I-angiotensin II or ^3 H-angiotensin II displacement of receptor preparations from various organs (liver, lung, adrenal gland, brain etc.).
To this end, the prepared membranes are suspended in an incubation buffer ([…], pH 7.4, containing 135 mM NaCl, 10 mM KCl, 10 mM MgCl2, 5 mM glucose, 0.2% bovine serum albumin and the protease inhibitors PMSF, 0.3 mM, and bacitracin, 0.1 mM) and incubated at 25° C. for 90 min together with the radioactively labeled angiotensin II and various concentrations of the compounds to be tested. Bound and free radioligand are then separated by filtration through micro glass fiber filters (GF51, Schleicher and Schull) in a cell collector (SKATRON).
The degree of displacement of the radioligand from the receptor by the test compounds is determined by measurement of the receptor-bound radioactivity on the filters by means of a beta- or gamma-spectrometer. The amount of the displacement of the radioligand from the receptor by the test compounds is indicated by the IC50, i.e. the concentration of the inhibitor which displaces 50% of the bound radioligand from the receptor. The calculation of the IC50 values is carried out by means of PC software (LIGAND, G. A. McPherson 1985, Elsevier BIOSOFT, 68 Hills Road, Cambridge, CB2 1LA, UK.).
`CCCCc1nc(SC)c(C(=O)OCC)n1Cc1ccc(-c2ccccc2S(=O)(=O)NC(=O)NC(C)c2ccccc2)cc1` (stereo not drawn) [Example 95]: the IC50 came to 1.8 nM.

Compound `CCCCc1nc(SC)c(C(=O)O)n1Cc1ccc(-c2ccccc2S(=O)(=O)NC(=O)NCc2ccccc2)cc1` [Example 80] gave an IC50 of 0.69 nM.

In the case of `CCCCc1nc(SC)c(C(=O)OCC)n1Cc1ccc(-c2ccccc2S(=O)(=O)NC(=O)NCCc2ccccc2)cc1` [Example 66], the half-maximal inhibitory concentration (IC50) was determined as 6.9 nM. This IC50 lies about 10-fold higher than the previous one.

Regarding `CCCCc1nc(SC)c(C(=O)O)n1Cc1ccc(-c2ccccc2S(=O)(=O)NC(=O)NCC2CC2)cc1` [Example 109], the IC50 was found to be 0.6 nM.

For the compound `CCCCc1nc(SC)c(C(=O)OCC)n1Cc1ccc(-c2ccccc2S(=O)(=O)NC(=O)NCc2ccc(OC)c(OC)c2)cc1` [Example 92], the half-inhibitory concentration (IC50) came to 280 nM.

Regarding `CCCCc1nc(SC)c(C(=O)O)n1Cc1ccc(-c2ccccc2S(=O)(=O)NC(=O)OCCOCc2ccccc2)cc1` [Example 172], the half-inhibitory concentration (IC50) was 0.48 nM.

In turn, `CCCCc1nc(SC)c(C(=O)O)n1Cc1ccc(-c2ccccc2S(=O)(=O)NC(=O)OCc2cccs2)cc1` [Example 164] returned a 50% inhibitory concentration (IC50) of 0.86 nM.

For the compound `CCCCc1nc(SC)c(C(=O)O)n1Cc1ccc(-c2ccccc2S(=O)(=O)NC(=O)NCCc2ccccc2)cc1` [Example 67], the IC50 came to 0.91 nM.

`CCCCc1nc(OC)c(C=O)n1Cc1ccc(-c2ccccc2S(=O)(=O)NC(=O)OCc2ccccc2)cc1` [Example 186, 1-{[(2'-Benzyloxycarbonylaminosulfonyl)biphenyl-4-]methyl}-2-n-butyl-4-methoxyimidazole-5-carbaldehyde] gave an IC50 of 6.5 nM.

For `CCCCc1nc(Cl)c(C=O)n1Cc1ccc(-c2ccccc2S(=O)(=O)NC(=O)Nc2ccc([N+](=O)[O-])cc2)cc1` [Example 22], the half-maximal inhibitory concentration (IC50) is 2000 nM.

In the case of `CCCCc1nc(SC)c(C(=O)OCC)n1Cc1ccc(-c2ccccc2S(=O)(=O)NC(=O)N2CCCC2)cc1` [Example 141], the IC50 came to 4.4 nM.

Take `CC#CCOC(=O)NS(=O)(=O)c1ccccc1-c1ccc(Cn2c(CCCC)nc(SC)c2C(=O)O)cc1` [Example 169]: the IC50 stood at 2.9 nM.

In turn, `CCCCc1nc(Cl)c(C=O)n1Cc1ccc(-c2ccccc2S(=O)(=O)NC(=O)Nc2ccccc2OC)cc1` [Example 33] gave an IC50 of 34 nM.

`C#CCNC(=O)NS(=O)(=O)c1ccccc1-c1ccc(Cn2c(CCCC)nc(SC)c2C(=O)O)cc1` [Example 64] gave a half-maximal inhibitory concentration (IC50) of 0.5 nM.

Turning to `CCCCc1nc(SC)c(C(=O)OCC)n1Cc1ccc(-c2ccccc2S(=O)(=O)NC(=O)OCC)cc1` [Example 170], the IC50 was 2.7 nM.

`CCCCc1nc(SC)c(C(=O)O)n1Cc1ccc(-c2ccccc2S(=O)(=O)NC(=O)NCCCc2ccccc2)cc1` [Example 81] had a concentration for half-maximal inhibition (IC50) of 0.79 nM.

The compound `CCCCc1nc(SC)c(C(=O)O)n1Cc1ccc(-c2ccccc2S(=O)(=O)NS(=O)(=O)c2cccs2)cc1` [Example 190, 1-[(2'-{2-Thienylsulfonylaminosulfonyl}biphenyl-4-yl)methyl]-2-n-butyl-4-methylthioimidazole-5-carboxylic acid] showed an IC50 of 22 nM. This IC50 is about 28-fold higher than that of the compound before.

Regarding `CCCCc1nc(Cl)c(C=O)n1Cc1ccc(-c2ccccc2S(=O)(=O)NC(=O)NCCc2ccccn2)cc1` [Example 29], the IC50 is 1.1 nM. Against the preceding compound, the IC50 is about 20-fold lower.

With `CCCCc1nc(SC)c(C(=O)O)n1Cc1ccc(-c2ccccc2S(=O)(=O)NC(=O)NC2CCCCC2)cc1` [Example 59], the IC50 was 1.3 nM.

Compound `CCCCc1nc(SC)c(C(=O)O)n1Cc1ccc(-c2ccccc2S(=O)(=O)NC(=O)OCCOC(C)C)cc1` [Example 157] showed an IC50 of 1.4 nM.

In turn, `C=CCNC(=O)NS(=O)(=O)c1ccccc1-c1ccc(Cn2c(CCCC)nc(Cl)c2C=O)cc1` [Example 55, 1-[(2'-allylaminocarbonylaminosulfonylbiphenyl-4-yl)methyl]-2-n-butyl-4-chloroimidazole-5-carboxaldehyde] gave an IC50 of 8.8 nM.

`C=CCNC(=O)NS(=O)(=O)c1ccccc1-c1ccc(Cn2c(CCCC)nc(SC)c2C(=O)OCC)cc1` [Example 58] yielded an IC50 of 3 nM.

Compound `CCCCc1nc(SC)c(C(=O)O)n1Cc1ccc(-c2ccccc2S(=O)(=O)NC(=O)OCC2CC=CCC2)cc1` (stereo not drawn) [Example 168] displayed an IC50 of 7 nM.

On to `CCCCc1nc(Cl)c(C=O)n1Cc1ccc(-c2ccccc2S(=O)(=O)NC(=O)NCCc2ccccc2)cc1` [Example 37], for which the IC50 is 1.1 nM.

As to `CCCCc1nc(SC)c(C(=O)OCC)n1Cc1ccc(-c2ccccc2S(=O)(=O)NC(=O)OCC=Cc2ccccc2)cc1` [Example 161], the IC50 was 57 nM.

As to `CCCCc1nc(Cl)c(C=O)n1Cc1ccc(-c2ccccc2S(=O)(=O)NC(=O)Nc2ccc(C)cc2)cc1` [Example 35], the IC50 was determined as 50 nM.

As to `CCCCc1nc(SC)c(C(=O)OCC)n1Cc1ccc(-c2ccccc2S(=O)(=O)NC(=O)OCc2cccs2)cc1` [Example 163], the IC50 is 3.7 nM.

In turn, `CCCCc1nc(Cl)c(C=O)n1Cc1ccc(-c2ccccc2S(=O)(=O)NC(=O)Nc2ccccc2F)cc1` [Example 24] had a concentration for half-maximal inhibition (IC50) of 800 nM. Against the preceding compound, the IC50 is about 220-fold higher.

On to `CCCCc1nc(SC)c(C(=O)O)n1Cc1ccc(-c2ccccc2S(=O)(=O)NC(=O)NCCC2CCCN2C)cc1` (stereo not drawn) [Example 108], for which the IC50 is 0.95 nM.

On to `CCCCc1nc(SC)c(C(=O)O)n1Cc1ccc(-c2ccccc2S(=O)(=O)NC(=O)OCc2cccs2)cc1` [Example 160], for which the IC50 was 0.73 nM.

`CCCCc1nc(SC)c(C(=O)O)n1Cc1ccc(-c2ccccc2S(=O)(=O)NC(=O)NCC2CCCCC2)cc1` [Example 60]: the 50% inhibitory concentration (IC50) worked out at 2.2 nM.

Consider `CCCCc1nc(SC)c(C(=O)OCC)n1Cc1ccc(-c2ccccc2S(=O)(=O)NC(=O)OCCc2ccccc2)cc1` [Example 151], for which the IC50 was found to be 0.4 nM. Against the preceding compound, the IC50 is about 5.5-fold lower.

On to `CCCCc1nc(SC)c(C(=O)O)n1Cc1ccc(-c2ccccc2S(=O)(=O)NC(=O)NCc2ccc(OC)c(OC)c2)cc1` [Example 89], for which the IC50 is 1.1 nM. Compared with the last compound, the IC50 is about 2.8-fold higher.

The compound `CCCCc1nc(SC)c(C(=O)O)n1Cc1ccc(-c2ccccc2S(=O)(=O)NC(=O)NCc2ccccc2OC)cc1` [Example 83] showed an IC50 of 0.96 nM.

Compound `CCCCc1nc(Cl)c(C=O)n1Cc1ccc(-c2ccccc2S(=O)(=O)NC(=O)NCCC)cc1` [Example 2, 1-[(2'-n-propylaminocarbonylaminosulfonylbiphenyl-4-yl)methyl]-2-n-butyl-4-chloroimidazole-5-carboxaldehyde] registered an IC50 of 8000 nM.

Regarding `C=C(C)COC(=O)NS(=O)(=O)c1ccccc1-c1ccc(Cn2c(CCCC)nc(SC)c2C(=O)O)cc1` [Example 166], the half-inhibitory concentration (IC50) came out at 1.2 nM. Against the preceding compound, the IC50 is about 6700-fold lower.

Take `CCCCc1nc(SC)c(C(=O)OCC)n1Cc1ccc(-c2ccccc2S(=O)(=O)NC(=O)NCCCc2ccccc2)cc1` [Example 76]: the half-maximal inhibitory concentration (IC50) turned out to be 9.5 nM.

`CCCCc1nc(SC)c(C(=O)O)n1Cc1ccc(-c2ccccc2S(=O)(=O)NC(=O)n2cccc2)cc1` [Example 139]: the IC50 is 2.8 nM. This IC50 lies about 3.4-fold lower than the previous one.

For `CCCCc1nc(SC)c(C(=O)OCC)n1Cc1ccc(-c2ccccc2S(=O)(=O)NC(=O)N2CCSCC2)cc1` [Example 144], the 50% inhibitory concentration (IC50) turned out to be 5.3 nM.

For `CCCCc1nc(SC)c(C(=O)OCC)n1Cc1ccc(-c2ccccc2S(=O)(=O)NC(=O)NCc2ccccc2)cc1` [Example 73], the half-inhibitory concentration (IC50) came to 2.5 nM.

For `CCCCc1nc(Cl)c(C=O)n1Cc1ccc(-c2ccccc2S(=O)(=O)NC(=O)Nc2ccc(F)cc2)cc1` [Example 25], the concentration for half-maximal inhibition (IC50) came out at 1400 nM.

In the case of `CCCCc1nc(Cl)c(C=O)n1Cc1ccc(-c2ccccc2S(=O)(=O)NC(=O)NCCN2CCCCC2)cc1` [Example 30], the concentration for half-maximal inhibition (IC50) was found to be 2030 nM.

For `CCCCc1nc(SC)c(C(=O)OCC)n1Cc1ccc(-c2ccccc2S(=O)(=O)NC(=O)NC)cc1` [Example 195], the IC50 worked out at 3 nM.

In the case of `CCCCc1nc(SC)c(C(=O)OCC)n1Cc1ccc(-c2ccccc2S(=O)(=O)NC(=O)N[C@H](C(=O)OC)C(C)CC)cc1` (stereo partly drawn) [Example 68], the 50% inhibitory concentration (IC50) turned out to be 12 nM.

Regarding `C#CCCOC(=O)NS(=O)(=O)c1ccccc1-c1ccc(Cn2c(CCCC)nc(SC)c2C(=O)O)cc1` [Example 154], the half-maximal inhibitory concentration (IC50) was found to be 1.8 nM.

In turn, `CCCCc1nc(SC)c(C(=O)O)n1Cc1ccc(-c2ccccc2S(=O)(=O)NC(=O)OCC=C(C)C)cc1` [Example 165] registered a half-inhibitory concentration (IC50) of 2.3 nM.

Take `CCCCc1nc(SC)c(C(=O)O)n1Cc1ccc(-c2ccccc2S(=O)(=O)NC(=O)OCCc2ccccc2)cc1` [Example 152]: the IC50 was found to be 1.5 nM.

`CCCCc1nc(SC)c(C(=O)OCC)n1Cc1ccc(-c2ccccc2S(=O)(=O)NC(=O)OCCOC(C)C)cc1` [Example 156] gave a half-inhibitory concentration (IC50) of 4.7 nM.

As for `C=CCN(CC=C)C(=O)NS(=O)(=O)c1ccccc1-c1ccc(Cn2c(CCCC)nc(SC)c2C(=O)O)cc1` [Example 61], the half-maximal inhibitory concentration (IC50) was found to be 1.1 nM.

In turn, `CCCCc1nc(SC)c(C(=O)O)n1Cc1ccc(-c2ccccc2S(=O)(=O)NC(=O)Nc2ccc(F)cc2)cc1` [Example 101] yielded a half-inhibitory concentration (IC50) of 2.4 nM.

Take `CCCCc1nc(SC)c(C(=O)O)n1Cc1ccc(-c2ccccc2S(=O)(=O)NC(=O)N[C@@H](CO)c2ccccc2)cc1` [Example 125]: the IC50 amounted to 2.8 nM.

With `CCCCc1nc(SC)c(C(=O)OCC)n1Cc1ccc(-c2ccccc2S(=O)(=O)NC(=O)NCCc2ccccn2)cc1` [Example 65], the 50% inhibitory concentration (IC50) was 1.8 nM. This IC50 lies about 1.6-fold lower than the previous one.

As to `CCCCc1nc(SC)c(C(=O)O)n1Cc1ccc(-c2ccccc2S(=O)(=O)NC(=O)NCc2ccncc2)cc1` [Example 115], the IC50 was determined as 0.9 nM. Against the preceding compound, the IC50 is about 2-fold lower.

The compound `CCCCc1nc(Cl)c(C=O)n1Cc1ccc(-c2ccccc2S(=O)(=O)NC(=O)NCc2ccc(OC)cc2)cc1` [Example 34] yielded an IC50 of 1 nM.

For the origin of these results see patent publication US5482957A, “Azole derivatives, process for their preparation and their use” (Hoechst Aktiengesellschaft, priority 1991, dated 1996).
